The source of these data is PubChem BioAssay (NCI).

What all share (test): NCI-60 cell line screen, 48 h
For test [1], the system named is T-47D breast.
The subject of test [2] is 786-0 renal.
In test [3] the test system is EKVX NSCLC.
In test [4] the test system is RXF 393 renal.
Test [5] concerns MDA-N.
Test [6] concerns SNB-19 CNS.
Test [7] has as its system SF-539 CNS.
Test [8] deals with MALME-3M melanoma.
Test [9] relates to BT-549 breast.
The subject of test [10] is HS 578T breast.

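Grown in 96-well plates, cells were treated for 48 hours with each compound at five concentrations. Insufficient inhibition: endpoint recorded as highest concentration tested. Definition used: TGI = concentration required for complete inhibition of growth.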 Some results are limits rather than exact numbers.

In the case of `COC(=O)CNC(=O)CSc1nnc(COc2ccc(Cl)cc2)n1-c1ccccc1`, the TGI is more than 100 µM in test [1]; 31.4 µM in test [2]; more than 100 µM in [3]; 51.1 µM in test [4]; 42.2 µM in test [5]; more than 100 µM in test [6]. Moreover, the TGI in [7] and in test [8] was more than 100 µM in each case.

As to `CCOC(=O)c1csc(-c2cn(C)c3c2C(=O)C(OC)=CC3=O)n1`, the TGI in [1] is more than 100 µM; in test [2], more than 100 µM; in [3], more than 100 µM; in test [9], more than 100 µM; in [4], 71.8 µM; in [10] it was more than 58.8 µM. In addition, the figures for the TGI in test [5], in test [6] and in test [7] were more than 50.1 µM, more than 100 µM and more than 82.9 µM, respectively.

As for `CN1N=C(c2ccccc2)c2cc(Cl)ccc2N=C1N/N=C/c1ccc(N(C)C)cc1`, the TGI in test [1], in test [2], in [3], in test [9], in test [4] and in [5] was more than 100 µM in each case. Moreover, the TGI in test [6] and in [7] was more than 100 µM throughout.

In the case of `Nn1c(CCCCCCCCc2n[nH]c(=S)n2N)n[nH]c1=S`, the TGI in test [1], in [2], in test [3], in [9], in test [4] and in [5] was more than 100 µM in each case. Further, the TGI in test [6], in test [7] and in [8] was more than 100 µM each time.

On to `O=C1c2c(O)cccc2Cc2cc(CO)cc(O)c21`, for which the TGI in test [1] turned out to be 11.9 µM; in test [2], 11.4 µM; in test [3], 9.62 µM; in test [9] it was 86 µM; in [5], 11.5 µM; in test [6] it was 36.6 µM. This compound came in with a TGI in [8] of 5.37 µM.

`CCN1C/C(=C\c2ccc(Cl)cc2)c2[nH]c(=O)c(C#N)c(-c3ccc(Cl)cc3)c2C1`: the TGI in test [1], in test [2], in test [3], in [9], in test [4] and in test [5] was more than 100 µM each time. The TGI in [6], in test [7] and in [8] was more than 100 µM throughout.

Take `CCCC(C(=O)Nc1cccc2[nH]cnc12)C(=O)OCC` (centres undefined): the TGI in test [1], in [2], in [3], in test [9], in test [10] and in test [6] was more than 100 µM each time. In [7], the TGI was more than 100 µM.

With `COc1cc([C@@H]2c3cc4c(cc3[C@@H](NC(=O)NO)[C@H]3COC(=O)[C@H]23)OCO4)cc(OC)c1O`, the TGI in test [1] was more than 100 µM; in [2], more than 100 µM; in [3] it was more than 100 µM; in test [5], 5.13 µM; in test [6] it was more than 100 µM; in [7], more than 100 µM.

Consider `CCOC(=O)c1nc2cc(F)cc(F)c2[nH]c1=O`, for which the TGI in test [1], in test [2], in [9], in [10], in test [5] and in test [6] was more than 100 µM each time. The same compound displayed a TGI in test [7] of more than 100 µM.

For the compound `O=C(O)CCC(NC(=O)c1ccc(Oc2nc3ccccc3nc2-c2ccccc2)cc1)C(=O)O` (centres undefined), the TGI in [1], in test [2], in [3], in [4], in test [5] and in test [6] was more than 100 µM in each case. Further, the TGI in [7] and in test [8] was more than 100 µM each time.

In the case of `O=c1c2ccccc2nc(N/N=C/c2ccc(Cl)cc2)n1-c1ccccc1`, the TGI in [1], in test [2], in test [3], in test [4], in test [5] and in test [6] was more than 100 µM in each case. Moreover, the TGI in [7] and in test [8] was more than 100 µM in each case.

In the case of `N#CC(C#N)=Cn1c(=S)[nH]c2ccc([N+](=O)[O-])cc21`, the TGI in test [1], in [2], in test [3], in test [4], in test [10] and in [5] was more than 100 µM throughout. Moreover, the TGI in test [6], in test [7] and in test [8] was more than 100 µM each time.

With `COC1OC(Cn2cc([N+](=O)[O-])nc2C)C(O)C(O)C1O` (centres undefined), the TGI in [1], in test [2], in [3], in test [4], in [10] and in test [5] was more than 100 µM in each case. Also, the TGI in [6] and in test [8] was more than 100 µM throughout.

For the compound `Nc1ncc2c(n1)-c1ccccc1OC2N1CCOCC1` (centres undefined), the TGI in [2], in test [3], in test [4], in test [10], in [5] and in test [6] was more than 100 µM throughout. Besides, the TGI in test [7] and in test [8] was more than 100 µM in each case.

For `COc1cc(-c2ccccc2)cn2c1nc1ccccc12`, the TGI in test [1] was determined as 83.6 µM; in [2] it was 34.7 µM; in test [9], 32.9 µM; in test [4], 34.6 µM; in [10], 71.4 µM; in test [5] it was 37.3 µM. For the same compound, the TGI in [6] was found to be 69.3 µM; in test [7], 50.4 µM; in test [8] it was 41.9 µM.

For `CCOC(=O)/C(=C\c1c(C)[nH]c2ccccc12)P(=O)(OCC)OCC`, the TGI in test [1], in test [2], in test [3], in test [4], in [10] and in test [5] was more than 100 µM throughout. Besides, the TGI in [6], in test [7] and in test [8] was more than 100 µM in each case.
